Experimental findings from US12157740B2, “Triazolopyridines and triazolopyrimidines that lower stress-induced p-tau” (NantNeuro, LLC, priority 2015, dated 2024) are described below.

Each structure is given as a SMILES string.

Series [1] deals with tau and p-tau in SH-Sy5Y cells. In words: screens for tau and p-tau levels in SH-Sy5Y cells (no CRF stated). It counts as cell-based. Particulars: for tau and/or p-tau lowering effect compared with J03: SH-Sy5Y screens (J04: p-tau only, FIG. 19; J17: FIGS. 21A-B; J14: FIG. 28A). As for the experimental part:
As described below, in vitro studies were performed using SHSY-5Y cells. These cells are a useful neurological model that differentiate into cells with morphological and biochemical characteristics of mature neurons including mature isoforms of tau. […]

Series [2] is described as follows: in vivo pharmacokinetics, plasma and brain levels. Also noted: species or system mouse. As to conditions: for time of peak levels after SQ injection: plasma and brain (J19: brain); for levels after oral delivery compared with injection: J32: plasma and brain; for brain levels after subcutaneous injection: peak for J14 and J19.
The subject of a further series is mice. In words: J14 daily SQ injection for 12 days in mice. It counts as in vivo, mouse. As for the experimental part: (§1) Animal experiments were performed using J20 mice. The J20 mouse is a model of for Alzheimer's disease. This model overexpresses human APP with two mutations linked to familial Alzheimer's disease (the APP KM670/671NL (Swedish) and 5APP V717F (Indiana) mutations).
FIGS. 31A-31F depict total sAPPα, Aβ1-40, and Aβ1-42, and tau, p-tau, and p-tau/tau ratio, respectively, after daily SQ injection at 10 mkd does for 12 days.

For series [3], the system named is tau and phospho-tau in SHSY-5Y cells. In words: CRF-induced tau, p-tau and sAPPα changes in SHSY-5Y cells. It counts as cell-based. As to conditions: for p-tau/tau ratio: FIG. 32C.
The next series deals with tau and p-tau. Nature of the series: effect of J03 and J19 on tau and p-tau (FIG. 39E-39F, system not given). From the text:
JI9 decreased tau and both J03 and JI9 decreased p-tau (FIG. 39E). Therefore, while the p-tau/tau ratio looks unchanged for J19 FIG. 39F. This is due to the tau decrease and not due to a lack of effect.

A further series concerns J20 mice. Nature of the series: J17 pilot study in J20 mice (oral, 28 days). It counts as in vivo, mouse. As to the method: as §1
In a J17 pilot study (#1 pilot study) male and female J20 mice were housed singly and treated with J17 at 10 rnkd by oral delivery for 28 days.

Setting [4] is: compared to a control J03, FIGS. 33A-33B.
The mark [5] stands for this setting: 10 mg/kg intraperitoneal, FIG. 33D.
Setting [6] is: CRF-1 at 0 nM, 50 nM and 100 nM, FIGS. 29B-29C.
Setting [7] is: CRF-1 at 100 nM for 3 days, compound at 20 nM, FIG. 29A.
Where [8] appears, read: primary screen in SH-Sy5Y cells, FIG. 19.

In the case of `CCC(COC)N(C)c1nc(C)nc2c1nnn2-c1c(C)cc(C)cc1C` (centres unmarked) [J32], in series [1] (1p M of J32 in SH-SY5Y cells, compared to J03 and a control, FIG. 33C), the p-tau/tau ratio result is given as “significant decrease”. Also, the p-tau/tau ratio entry in series [1] (setting [4]) is “significantly lowered”. Further, in series [2] (10 mg/kg SQ), the “brain/plasma ratio after SQ injection” value turned out to be 0.75 and the “time of peak levels after SQ injection” value was found to be 1 h. For the same compound, in series [2] (setting [5]), the “clearance from brain after IP injection” value is “cleared out slowly over 8 hours” and the “time of peak brain levels after IP injection” value is 2 h. In addition, the “levels after oral delivery compared with injection” value in series [2] (10 mg/kg oral) is recorded as “much lower”.

Regarding `CCC(COC)n1nnc2c(N(C)c3ccc(OC)cc3C)nc(C)nc21` (centres unmarked) [J30], in series [1] (setting [4]), the total tau levels entry is recorded as “lowered”.

As for `CCC(COC)n1nnc2c(N(C)c3c(C)cc(C)cc3C)nc(C)nc21` (centres unmarked) [J14], in the series with mice (B254 mice (Swedish, Indiana and D664A APP mutations), trend for both vehicle and J14 treated, FIGS. 31D-31F), the tau protein entry is “trend for lower levels”. Besides, in the series with mice (daily SQ injection 10 mkd for 12 days, FIG. 31B), the Aβ1-40 result is reported as “trend toward decrease”. In the series with mice (daily SQ injection 10 mkd for 12 days, FIG. 31C), the Aβ1-42 entry is given as “trend toward decrease”. Besides, in the series on mice (daily SQ injection 10 mkd for 12 days, compared to vehicle treated mice, FIG. 31A), the sAPPα entry is “decrease”. In series [3] (setting [6]), the p-tau entry is “decreasing”; the “p-tau and tau decrease compared with J03” value is “more than J03”; the tau result is reported as “decreasing”. In series [3] (setting [7]), the p-tau result was “decreased” and the total tau result is reported as “decreased”. Further, the “tau and/or p-tau lowering effect compared with J03” value in series [1] is listed as “more than J03”. In series [1] (screen of FIG. 28A), the p-tau result is “decreased” and the total tau entry is “decreased”. Besides, in series [1] (screen of FIG. 28B), the p-tau result is “neither J14 nor J03 decreased” and the total tau entry is “neither J14 nor J03 decreased”. Further, in series [2] (10 mg/kg SQ), the “brain/plasma ratio after SQ injection” value is on record as 0.6, the “brain levels after subcutaneous injection” value is recorded as 485 ng/g and the “time of peak levels after SQ injection” value is 2 h. In addition, the “plasma level at peak after subcutaneous injection” value in series [2] (10 mg/kg SQ, FIG. 30A) amounted to 798 ng/mL. In addition, the “time of peak brain levels after oral feeding” value in series [2] (10 mg/kg oral, FIG. 30B) is 2 h. Besides, the “brain levels after oral delivery” value in series [2] (10 mg/kg oral, peak for J14) was 13.3 ng/g. Moreover, in series [2] (oral feeding at 10 mg/kg), the “brain:plasma ratio after oral delivery” value is given as 1.33.

Turning to `CCC(COC)n1nnc2c(Nc3ccc(OC)cc3C)nc(C)nc21` (centres unmarked) [J04], the “tau and/or p-tau lowering effect compared with J03” value in series [1] is recorded as “same level as J03”. In addition, in series [1] (setting [8]), the p-tau entry is “did lower” and the tau entry is listed as “did not lower”. For the same compound, the “clearance after injection compared with oral delivery” value in series [2] (SQ injection, FIG. 20A) is given as “slower”. For the same compound, in series [2] (dose not given, FIG. 20A), the “brain levels after SQ injection” value is given as around 55 ng/g and the “brain levels after oral delivery” value is given as around 55 ng/g.

On to `CCC(COC)Nc1nc(C)nc2c1nnn2-c1ccc(Cl)cc1C` (centres unmarked) [J19, 3-(4-Chloro-2-methylphenyl)-N-(1-methoxybutan-2-yl)-5-methyl-3H-[1,2,3]triazolo[4,5-d]pyrimidin-7-amine], for which the p-tau/tau ratio entry in series [3] (at 50 and 100 nM CRF) is “highly significantly decreased”; in series [3] (in the absence of CRF), “decreased”; in the series with tau and p-tau (FIG. 39F as printed, due to the tau decrease), “unchanged”. The tau result is “trend to decrease” in series [3] (in the absence of CRF and in the presence of 100 nM CRF, FIG. 32A); “decreased” in the series on tau and p-tau (FIG. 39E). For the same compound, the p-tau result is reported as “significantly reduced” in series [3] (in the presence and absence of CRF, FIG. 32B); “decreased” in the series on tau and p-tau (FIG. 39E). Also, the sAPPα result in series [3] (with and without CRF, FIG. 32D) is on record as “trend for sAPPα to be higher”. The “brain levels after subcutaneous injection” value in series [2] (10 mg/kg SQ) is around 190 ng/g. The “time of peak levels after SQ injection” value in series [2] (10 mg/kg SQ) came out at 4 h. Besides, the “levels after oral delivery compared with injection” value in series [2] (10 mg/kg oral) is listed as “much lower”. For the same compound, the “persistence of brain levels after SQ injection” value in series [2] (10 mkd SQ, FIG. 32G) is “relatively high until 8 hours”.

Regarding `CCC(COC)Nc1nc(C)nc2c1nnn2-c1ccc(OC)cc1C` (centres unmarked) [J17], the “tau after exposure to CRF” value in series [3] (FIG. 21D) is given as “decreased”. Also, the “p-tau after exposure to CRF” value in series [3] (FIG. 21E) was “decreased”. The “p-tau with increasing concentrations of CRF” value in series [3] (seen at all concentrations of CRF tested, excluding 0, FIG. 22C) is reported as “decrease”. For the same compound, the “sAPPα with increasing concentrations of CRF” value in series [3] (seen without CRF and at 50 nM, not at other concentrations, FIG. 22A) is “decrease”. For the same compound, the “tau with increasing concentrations of CRF” value in series [3] (seen without CRF and at 50 and 100 nM, FIG. 22B) is given as “decrease”. In addition, the “sAPPα after exposure to CRF” value in series [3] (versus control, FIG. 21C) is on record as “the same for control as for J17”. For the same compound, the Aβ1-40/Aβ1-42 ratio result in the series on J20 mice (FIG. 26C) is on record as “no significant difference”. The Aβ1-42 entry is recorded as “no significant differences” with J20 mice (data from all mice, FIG. 26A) and “significant reduction” with J20 mice (male mice, low outlier from one sibling pair eliminated, FIG. 26B). In addition, in the series with J20 mice (male and female J20 mice housed singly, oral 28 days, not significant, FIG. 24A), the activity result is reported as “lowered”. Moreover, the p-tau entry with J20 mice (male mice, FIG. 27B) is on record as “slightly lower”; in series [1] (SH-Sy5Y cells, FIG. 21B) it was “significantly lower”. Also, the p-tau/tau ratio result in the series with J20 mice (male mice, FIG. 27C) is “lower still”. The Tau entry in the series on J20 mice (males, FIG. 27A) is on record as “increased”. Also, the sAPPβ entry in the series on J20 mice (oral 28 days, FIG. 25B) is listed as “decrease”. The “novel object preference, overall” value in the series with J20 mice (oral 28 days, all mice, FIG. 24B) is “increase with J17 was significant”. For the same compound, the sAPPα result in the series on J20 mice (oral 28 days, both genders, FIG. 25A) is “increase with J03 but not J17”. For the same compound, the “ratio sAPPα/sAPPβ” value in the series on J20 mice (oral 28 days, males, FIG. 25C) is “greater”. Further, the tau entry in series [1] (SH-Sy5Y cells, FIG. 21A) is recorded as “significantly lower”. Also, the “tau and/or p-tau lowering effect compared with J03” value in series [1] is recorded as “greater”. Besides, the “plasma levels after subcutaneous injection” value in series [2] (10 mg/kg SQ, FIG. 23A) is around 4000 ng/m. Further, the “brain levels after subcutaneous injection” value in series [2] (10 mg/kg SQ) was around 400 ng/g. The “plasma levels relative to brain levels after oral delivery” value in series [2] (10 mg/kg oral, FIG. 23B) is around 10 fold. In addition, the “brain levels after oral delivery” value in series [2] (10 mg/kg oral, peak for J14) is reported as around 50 ng/g.
